Reference: the NIST ThermoML archive (doi:10.1021/je060271a)
“And” between values parts separate entries of the source, which are not always exact repeats. Identical values can stand only once.

Conditions: Liquid, Vibrating tube method

CCCC(=O)OCC(COC(=O)CCC)(COC(=O)CCC)COC(=O)CCC [pentaerythritol tetrabutyrate]
Conditions | mass density
283.16 K, 23020 kPa | 1072.1 kg/m3
283.16 K, 23036 kPa | 1072.1 kg/m3
283.16 K, 23052 kPa | 1072.2 kg/m3
283.16 K, 23069 kPa | 1072.1 kg/m3
283.16 K, 23089 kPa | 1072.1 kg/m3
283.16 K, 23106 kPa | 1072.1 kg/m3
283.16 K, 23123 kPa | 1072.2 kg/m3
283.16 K, 23269 kPa | 1072.2 kg/m3
283.16 K, 23431 kPa | 1072.4 kg/m3
283.16 K, 23452 kPa | 1072.4 kg/m3
283.16 K, 23468 kPa | 1072.3 kg/m3
283.16 K, 23490 kPa | 1072.3 kg/m3
283.16 K, 23507 kPa | 1072.4 kg/m3
283.16 K, 23524 kPa | 1072.5 kg/m3
283.16 K, 23541 kPa | 1072.4 kg/m3
283.16 K, 23562 kPa | 1072.4 kg/m3
283.16 K, 23580 kPa | 1072.5 kg/m3
283.16 K, 23601 kPa | 1072.4 kg/m3
283.16 K, 23619 kPa | 1072.4 kg/m3
283.16 K, 23636 kPa | 1072.4 kg/m3
283.16 K, 23657 kPa | 1072.3 kg/m3
283.16 K, 23675 kPa | 1072.4 kg/m3
283.16 K, 23692 kPa | 1072.5 kg/m3
283.16 K, 23710 kPa | 1072.6 kg/m3
283.16 K, 23767 kPa | 1072.5 kg/m3
283.16 K, 23788 kPa | 1072.6 kg/m3
283.16 K, 23806 kPa | 1072.5 kg/m3
283.16 K, 23824 kPa | 1072.5 kg/m3
283.16 K, 23846 kPa | 1072.6 kg/m3
283.16 K, 23864 kPa | 1072.6 kg/m3
283.16 K, 24034 kPa | 1072.7 kg/m3
283.16 K, 24056 kPa | 1072.8 kg/m3
283.16 K, 24075 kPa | 1072.7 kg/m3
283.16 K, 24094 kPa | 1072.7 kg/m3
283.16 K, 24114 kPa | 1072.6 kg/m3
283.16 K, 24135 kPa | 1072.6 kg/m3
283.16 K, 24154 kPa | 1072.8 kg/m3
283.16 K, 24172 kPa | 1072.7 kg/m3
283.16 K, 24191 kPa | 1072.6 kg/m3
283.16 K, 24213 kPa | 1072.7 kg/m3
283.16 K, 24231 kPa | 1072.8 kg/m3
283.16 K, 24254 kPa | 1072.9 kg/m3
283.16 K, 24332 kPa | 1072.7 kg/m3
283.16 K, 24351 kPa | 1072.9 kg/m3
283.16 K, 24370 kPa | 1072.7 kg/m3
283.16 K, 24392 kPa | 1072.7 kg/m3
283.16 K, 24412 kPa | 1072.8 kg/m3
283.16 K, 24431 kPa | 1072.9 kg/m3
283.16 K, 24453 kPa | 1072.9 kg/m3
283.16 K, 24472 kPa | 1072.9 kg/m3
283.16 K, 24494 kPa | 1072.9 kg/m3
283.16 K, 24514 kPa | 1072.9 kg/m3
283.16 K, 24532 kPa | 1072.9 kg/m3
283.16 K, 24551 kPa | 1072.9 kg/m3
283.16 K, 24574 kPa | 1072.9 kg/m3
283.16 K, 24593 kPa | 1072.9 kg/m3
283.16 K, 24613 kPa | 1073 kg/m3
283.16 K, 24636 kPa | 1072.9 kg/m3
283.16 K, 24656 kPa | 1073 kg/m3
283.16 K, 24989 kPa | 1073.1 kg/m3
283.16 K, 25506 kPa | 1073.5 kg/m3
283.16 K, 25531 kPa | 1073.5 kg/m3
283.16 K, 25552 kPa | 1073.5 kg/m3
283.16 K, 25573 kPa | 1073.4 kg/m3
283.16 K, 26529 kPa | 1073.9 kg/m3
283.16 K, 26552 kPa | 1074 kg/m3
283.16 K, 26575 kPa | 1074 kg/m3
283.16 K, 26603 kPa | 1073.9 kg/m3
283.16 K, 26626 kPa | 1074 kg/m3
283.16 K, 26649 kPa | 1074 kg/m3
283.16 K, 26676 kPa | 1073.9 kg/m3
283.16 K, 26698 kPa | 1074 kg/m3
283.16 K, 29351 kPa | 1075.5 kg/m3
283.16 K, 29380 kPa | 1075.4 kg/m3
283.16 K, 29409 kPa | 1075.5 kg/m3
283.16 K, 33957 kPa | 1077.9 kg/m3
283.16 K, 34005 kPa | 1077.8 kg/m3
283.16 K, 34045 kPa | 1078 kg/m3
283.16 K, 34086 kPa | 1077.9 kg/m3
283.16 K, 34136 kPa | 1078 kg/m3
283.16 K, 34523 kPa | 1078 kg/m3
283.16 K, 34524 kPa | 1078.1 kg/m3
283.16 K, 34525 kPa | 1078.1 kg/m3 and 1078 kg/m3
283.16 K, 34526 kPa | 1078.2 kg/m3 and 1078.1 kg/m3
283.16 K, 34527 kPa | 1078.1 kg/m3 and 1078.2 kg/m3
283.16 K, 34528 kPa | 1078.2 kg/m3 and 1078.1 kg/m3
283.16 K, 34529 kPa | 1078.1 kg/m3
283.17 K, 5010.1 kPa | 1062 kg/m3
283.17 K, 5010.7 kPa | 1062.1 kg/m3
283.17 K, 5010.8 kPa | 1062 kg/m3
283.17 K, 5011 kPa | 1062 kg/m3
283.17 K, 5011.2 kPa | 1062 kg/m3 and 1062.1 kg/m3
283.17 K, 5011.5 kPa | 1062.1 kg/m3
283.17 K, 5026.1 kPa | 1062 kg/m3
283.17 K, 5026.2 kPa | 1061.9 kg/m3
283.17 K, 5026.4 kPa | 1062 kg/m3
283.17 K, 5482.5 kPa | 1062.3 kg/m3
283.17 K, 5493.4 kPa | 1062.3 kg/m3
283.17 K, 5500 kPa | 1062.3 kg/m3
283.17 K, 5505.1 kPa | 1062.3 kg/m3
283.17 K, 6286.6 kPa | 1062.7 kg/m3
283.17 K, 6293.2 kPa | 1062.8 kg/m3
283.17 K, 34163 kPa | 1077.8 kg/m3
283.17 K, 34186 kPa | 1077.9 kg/m3
283.17 K, 34206 kPa | 1078 kg/m3
283.17 K, 34224 kPa | 1077.9 kg/m3
283.17 K, 34234 kPa | 1077.9 kg/m3
283.17 K, 34519 kPa | 1078.2 kg/m3 and 1078.1 kg/m3
283.17 K, 34520 kPa | 1078.1 kg/m3
283.17 K, 34521 kPa | 1078.2 kg/m3 and 1078.1 kg/m3
283.17 K, 34522 kPa | 1078 kg/m3 and 1078.1 kg/m3
283.17 K, 34523 kPa | 1078.2 kg/m3
283.17 K, 34524 kPa | 1078.2 kg/m3
303.15 K, 13139 kPa | 1050.5 kg/m3
303.15 K, 20352 kPa | 1054.9 kg/m3
303.15 K, 20397 kPa | 1055 kg/m3
303.15 K, 20435 kPa | 1055.1 kg/m3
303.15 K, 21135 kPa | 1055.3 kg/m3
303.15 K, 21185 kPa | 1055.4 kg/m3
303.15 K, 21226 kPa | 1055.4 kg/m3
303.15 K, 21276 kPa | 1055.5 kg/m3
303.15 K, 21416 kPa | 1055.6 kg/m3
303.15 K, 32925 kPa | 1062.1 kg/m3
303.15 K, 32967 kPa | 1062.1 kg/m3
303.15 K, 33008 kPa | 1062.1 kg/m3
303.15 K, 33049 kPa | 1062.2 kg/m3
303.16 K, 104.1 kPa | 1042.1 kg/m3
303.16 K, 104.5 kPa | 1042.2 kg/m3
303.16 K, 105.2 kPa | 1042.1 kg/m3
303.16 K, 105.7 kPa | 1042.2 kg/m3
303.16 K, 106 kPa | 1042.3 kg/m3
303.16 K, 106.2 kPa | 1042.2 kg/m3
303.16 K, 106.4 kPa | 1042.2 kg/m3
303.16 K, 106.7 kPa | 1042.3 kg/m3
303.16 K, 108.3 kPa | 1042.3 kg/m3
303.16 K, 112.7 kPa | 1042.2 kg/m3
303.16 K, 117.7 kPa | 1042.3 kg/m3
303.16 K, 124.5 kPa | 1042.2 kg/m3
303.16 K, 132.1 kPa | 1042.1 kg/m3
303.16 K, 137.5 kPa | 1042.1 kg/m3
303.16 K, 143.9 kPa | 1042.3 kg/m3
303.16 K, 150.9 kPa | 1042.3 kg/m3
303.16 K, 159.9 kPa | 1042.2 kg/m3
303.16 K, 169 kPa | 1042.2 kg/m3
303.16 K, 180.8 kPa | 1042.3 kg/m3
303.16 K, 192.3 kPa | 1042.2 kg/m3
303.16 K, 204.8 kPa | 1042.2 kg/m3
